# Experimental data reported in ChEMBL document CHEMBL3714764, “Diaminopyrimidine p2x3 and p2x2/3 receptor modulators for treatment of acute, sub-acute or chronic cough” (2015).
# Active and inactive are the calls of the source. The calls are words filed in the database; no cut-off is given here.
# Species: Homo sapiens
# Assay: Anti-tussive activity in idiopathic/treatment-resistant chronic cough patient assessed as cough severity visual analogue scales at 600 mg BID measured after 2 weeks during double-blind randomized placebo-controlled crossover trial
# Assay type: functional
row,SMILES,Activity [mm]
1,COc1cc(C(C)C)c(Oc2cnc(N)nc2N)cc1S(N)(=O)=O [GEFAPIXANT],-26

# Species: Homo sapiens
# Assay: Anti-tussive activity in patient with refractory chronic cough assessed as reduction in objective daytime cough counts at 600 mg BID measured after 2 weeks during double-blind randomized placebo-controlled crossover trial
# Assay type: functional
row,SMILES,inhibition (INH) [%]
1,COc1cc(C(C)C)c(Oc2cnc(N)nc2N)cc1S(N)(=O)=O [GEFAPIXANT],75

# Species: Homo sapiens
# Assay: Anti-tussive activity in idiopathic/treatment-resistant chronic cough patient assessed as reduction in daytime cough per hour at 600 mg BID measured after 2 weeks during double-blind randomized placebo-controlled crossover trial
# Assay type: functional
row,SMILES,inhibition (INH) [%]
1,COc1cc(C(C)C)c(Oc2cnc(N)nc2N)cc1S(N)(=O)=O [GEFAPIXANT],75

# Species: Homo sapiens
# Assay: Anti-tussive activity in idiopathic/treatment-resistant chronic cough patient assessed as urge to cough analogue scales at 600 mg BID measured after 2 weeks during double-blind randomized placebo-controlled crossover trial
# Assay type: functional
row,SMILES,Activity [mm]
1,COc1cc(C(C)C)c(Oc2cnc(N)nc2N)cc1S(N)(=O)=O [GEFAPIXANT],-21

# Target: T1, P2X purinoceptor 3 (Rattus norvegicus) (UniProt P49654)
# T1 sequence (whole entry): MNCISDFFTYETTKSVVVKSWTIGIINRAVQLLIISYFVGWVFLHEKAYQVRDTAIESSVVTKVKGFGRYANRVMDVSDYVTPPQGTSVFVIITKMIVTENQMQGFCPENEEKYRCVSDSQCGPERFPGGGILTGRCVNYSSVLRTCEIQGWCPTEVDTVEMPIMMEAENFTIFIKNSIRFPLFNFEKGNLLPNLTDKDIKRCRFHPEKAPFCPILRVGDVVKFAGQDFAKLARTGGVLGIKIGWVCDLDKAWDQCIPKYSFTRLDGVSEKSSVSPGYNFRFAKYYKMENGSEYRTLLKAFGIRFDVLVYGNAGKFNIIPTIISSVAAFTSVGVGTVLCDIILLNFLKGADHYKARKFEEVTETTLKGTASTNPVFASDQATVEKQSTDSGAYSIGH
# Assay: (§1) Antagonist activity against rat P2X3 receptor expressed in CHO-K1 cells assessed as effect on calcium level incubated for 20 mins by Fluo-3AM dye based FLIPR assay
# Assay type: functional, cell-based
row,SMILES,inhibition
1,CC(C)c1cc(O)c(I)cc1Cc1cnc(N)nc1N,Active
2,COc1cc(C(C)C)c(Oc2cnc(N)nc2N)cc1C(=O)N(C)C,Active
3,CNC(=O)c1cc(Oc2cnc(N)nc2N)c(C(C)C)cc1OC,Active
4,COc1cc(C(C)C)c(Oc2cnc(N)nc2N)cc1NC(C)=O,Active
5,COc1cc(C(C)C)c(Oc2cnc(N)nc2N)cc1NC(N)=O,Active
6,CCNS(=O)(=O)c1cc(Oc2cnc(N)nc2N)c(C(C)C)cc1OC,Active
7,COc1cc(C(C)C)c(Oc2cnc(N)nc2N)cc1S(C)(=O)=O,Active
8,COc1cc(C(C)C)c(Oc2cnc(N)nc2N)cc1C(C)OC (configuration not stated),Active
9,COc1cc(C(C)C)c(Oc2cnc(N)nc2N)cc1Cl,Active
10,CC(=O)c1cc(Oc2cnc(N)nc2N)c(C(C)C)cc1O,Active
11,COc1cc(C(C)C)c(Oc2cnc(N)nc2N)cc1NC(=O)Nc1ccccc1,Active
12,COc1cc(C(C)C)c(Oc2cnc(N)nc2N)cc1C(F)(F)F,Active
13,COc1cc(C(C)C)c(Oc2cnc(N)nc2N)cc1OC(F)(F)F,Active
14,CCS(=O)(=O)c1cc(Oc2cnc(N)nc2N)c(C(C)C)cc1OC,Active
15,CNS(=O)(=O)c1cc(Oc2cnc(N)nc2N)c(C(C)C)cc1OC,Active
16,COc1cc(C(C)C)c(Oc2cnc(N)nc2N)cc1S(N)(=O)=O [GEFAPIXANT],Active
17,CCNC(=O)Nc1cc(Oc2cnc(N)nc2N)c(C(C)C)cc1OC,Active

# The remaining lines, values ahead:
row,inhibition,SMILES
1,Active,C=Cc1cc(Oc2cnc(N)nc2N)c(C(C)C)cc1OC
2,Active,COc1cc(C(C)C)c(Oc2cnc(N)nc2N)cc1F
3,Active,COc1cc(C(C)C)c(Oc2cnc(N)nc2N)cc1C#N
4,Active,COc1cc(C(C)C)c(Oc2cnc(N)nc2N)cc1C
5,Active,COc1cc(C(C)C)c(Oc2cnc(N)nc2N)cc1C(N)=O
6,Active,CCOc1cc(C(C)C)c(Oc2cnc(N)nc2N)cc1I
7,Active,CC(C)c1cc(OCC(F)(F)F)c(I)cc1Oc1cnc(N)nc1N
8,Active,COc1cc(C(C)C)c(Oc2cnc(N)nc2N)cc1N
9,Active,COc1cc(C(C)C)c(Oc2cnc(N)nc2N)cc1C(C)C
10,Active,COc1cc(C(C)C)c(Oc2cnc(N)nc2N)cc1C(=O)O
11,Active,COc1cc(C(C)C)c(Oc2cnc(N)nc2N)cc1C(C)=O
12,Active,COc1cc(C(C)C)c(Oc2cnc(N)nc2N)cc1[N+](=O)[O-]
13,Active,COc1cc(C(C)C)c(Oc2cnc(N)nc2N)cc1Br
14,Active,COc1cc(Oc2cnc(N)nc2N)c(C(C)C)cc1OC
15,Active,COc1cc(C(C)C)c(Oc2cnc(N)nc2N)cc1C(C)O (configuration not stated)
16,Active,CC(C)c1cc(OC(F)F)c(Cl)cc1Oc1cnc(N)nc1N
17,Active,COc1cc(C(C)C)c(Oc2cnc(N)nc2N)cc1I
18,Active,C#CCOc1cc(C(C)C)c(Oc2cnc(N)nc2N)cc1I
19,Active,COc1cc(C(C)C)c(Oc2cnc(N)nc2N)cc1C(C)(C)O

# Target: T2, P2X purinoceptor 3 (Rattus norvegicus, UniProt P49654)
# T2 sequence (P49654 whole entry): T1 sequence (whole entry)
# Assay: as §1
# Assay type: functional, cell-based
row,IC50 [nM],SMILES
1,5.01,CC(C)c1cc(O)c(I)cc1Oc1cnc(N)nc1N

# Species: Homo sapiens
# Assay: Anti-tussive activity in idiopathic/treatment-resistant chronic cough patient assessed as global ratings of change and cough quality of life questionnaire at 600 mg BID measured after 2 weeks during double-blind randomized placebo-controlled crossover trial
# Assay type: functional
row,SMILES,Activity_index
1,COc1cc(C(C)C)c(Oc2cnc(N)nc2N)cc1S(N)(=O)=O [GEFAPIXANT],-9
